Laboratory results taken from the supplement of paper PMC13207355.

Key:
Conditions in all cases: exposure time: 72 h
E57 [1] = patient-derived glioblastoma stem cells of mesenchymal subtype; experiment: phenotypic distance (Euclidean, principal components) from DMSO controls (arbitrary units); higher = stronger morphological change
E28 [2] = patient-derived glioblastoma stem cells of classical subtype; experiment: as above
E34 [3] = patient-derived glioblastoma stem cells of proneural subtype; experiment: as above
E13 [4] = patient-derived glioblastoma stem cells of classical subtype; experiment: as above
FT3469 [5] = normal neural stem cell line; experiment: as above
E21 [6] = patient-derived glioblastoma stem cells of mesenchymal subtype; experiment: as above
E31 [7] = patient-derived glioblastoma stem cells of proneural subtype; experiment: as above
E57 [8] = experiment: surviving fraction (nuclei count normalised to DMSO); higher = more cells surviving (less toxic)
E28 [9] = experiment: as above
E34 [10] = experiment: as above
E13 [11] = experiment: as above
FT3469 [12] = experiment: as above
E21 [13] = experiment: as above
E31 [14] = experiment: as above
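Throughout, for phenotypic distance (Euclidean, principal components) from DMSO controls: cell Painting imaging in 384-well plates, CellProfiler features reduced to at least 20 principal components, Euclidean distance versus same-plate DMSO vehicle wells (0.1% v/v), median over six images per well.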
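Throughout, for surviving fraction (nuclei count normalised to DMSO): nuclei counted by high-content imaging of Hoechst-stained cells in laminin-coated 384-well plates, relative to 0.1% DMSO vehicle wells, with staurosporine as cell-death control.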

O=C(CCBr)N1CCN(C(=O)CCBr)CC1 [Pipobroman]
Conditions	phenotypic distance	surviving fraction
E13 [4], 4.1 nM	0.472	–
E13 [4], 12.3 nM	0.7	–
E13 [4], 37 nM	0.541	–
E13 [4], 111.1 nM	0.407	–
E13 [4], 333.3 nM	0.764	–
E13 [4], 1000 nM	0.638	–
E13 [4], 3000 nM	0.745	–
E13 [11], 4.1 nM	–	0.929
E13 [11], 12.3 nM	–	0.984
E13 [11], 37 nM	–	1.02
E13 [11], 111.1 nM	–	0.921
E13 [11], 333.3 nM	–	0.977
E13 [11], 1000 nM	–	0.982
E13 [11], 3000 nM	–	0.98
E21 [6], 4.1 nM	0.8	–
E21 [6], 12.3 nM	0.777	–
E21 [6], 37 nM	0.578	–
E21 [6], 111.1 nM	0.528	–
E21 [6], 333.3 nM	0.76	–
E21 [6], 1000 nM	0.889	–
E21 [6], 3000 nM	2.2	–
E21 [13], 4.1 nM	–	1.13
E21 [13], 12.3 nM	–	0.912
E21 [13], 37 nM	–	1.01
E21 [13], 111.1 nM	–	0.966
E21 [13], 333.3 nM	–	1.05
E21 [13], 1000 nM	–	0.836
E21 [13], 3000 nM	–	0.811
E28 [2], 4.1 nM	0.503	–
E28 [2], 12.3 nM	0.763	–
E28 [2], 37 nM	0.907	–
E28 [2], 111.1 nM	0.719	–
E28 [2], 333.3 nM	0.82	–
E28 [2], 1000 nM	0.794	–
E28 [2], 3000 nM	1.56	–
E28 [9], 4.1 nM	–	0.961
E28 [9], 12.3 nM	–	1.13
E28 [9], 37 nM	–	0.966
E28 [9], 111.1 nM	–	0.954
E28 [9], 333.3 nM	–	0.979
E28 [9], 1000 nM	–	0.931
E28 [9], 3000 nM	–	0.713
E31 [7], 4.1 nM	0.424	–
E31 [7], 12.3 nM	0.596	–
E31 [7], 37 nM	0.531	–
E31 [7], 111.1 nM	0.433	–
E31 [7], 333.3 nM	0.574	–
E31 [7], 1000 nM	1.19	–
E31 [7], 3000 nM	1.45	–
E31 [14], 4.1 nM	–	0.99
E31 [14], 12.3 nM	–	0.958
E31 [14], 37 nM	–	0.924
E31 [14], 111.1 nM	–	0.976
E31 [14], 333.3 nM	–	0.859
E31 [14], 1000 nM	–	0.759
E31 [14], 3000 nM	–	0.716
E34 [3], 4.1 nM	0.724	–
E34 [3], 12.3 nM	0.45	–
E34 [3], 37 nM	0.596	–
E34 [3], 111.1 nM	0.698	–
E34 [3], 333.3 nM	0.871	–
E34 [3], 1000 nM	0.646	–
E34 [3], 3000 nM	0.982	–
E34 [10], 4.1 nM	–	1.03
E34 [10], 12.3 nM	–	0.865
E34 [10], 37 nM	–	1.08
E34 [10], 111.1 nM	–	1.06
E34 [10], 333.3 nM	–	1.01
E34 [10], 1000 nM	–	0.892
E34 [10], 3000 nM	–	1.1
E57 [1], 4.1 nM	0.542	–
E57 [1], 12.3 nM	0.868	–
E57 [1], 37 nM	0.587	–
E57 [1], 111.1 nM	0.428	–
E57 [1], 333.3 nM	0.404	–
E57 [1], 1000 nM	0.464	–
E57 [1], 3000 nM	1.79	–
E57 [8], 4.1 nM	–	1.05
E57 [8], 12.3 nM	–	1.02
E57 [8], 37 nM	–	1.06
E57 [8], 111.1 nM	–	1.07
E57 [8], 333.3 nM	–	1.07
E57 [8], 1000 nM	–	0.958
E57 [8], 3000 nM	–	0.816
FT3469 [5], 4.1 nM	0.541	–
FT3469 [5], 12.3 nM	0.755	–
FT3469 [5], 37 nM	0.771	–
FT3469 [5], 111.1 nM	0.734	–
FT3469 [5], 333.3 nM	0.615	–
FT3469 [5], 1000 nM	1.02	–
FT3469 [5], 3000 nM	1.65	–
FT3469 [12], 4.1 nM	–	1.12
FT3469 [12], 12.3 nM	–	1.08
FT3469 [12], 37 nM	–	0.946
FT3469 [12], 111.1 nM	–	1
FT3469 [12], 333.3 nM	–	1.05
FT3469 [12], 1000 nM	–	0.961
FT3469 [12], 3000 nM	–	0.86

COc1cccc2c1C(=O)c1c(O)c3c(c(O)c1C2=O)C[C@@](O)(C(=O)CO)C[C@@H]3O[C@H]1C[C@H](N)[C@H](O[C@@H]2CCCCO2)[C@H](C)O1 [Pirarubicin]
Conditions	phenotypic distance	surviving fraction
E13 [4], 4.1 nM	5.19	–
E13 [4], 12.3 nM	5.1	–
E13 [4], 37 nM	4.19	–
E13 [4], 111.1 nM	5.27	–
E13 [4], 333.3 nM	5.59	–
E13 [4], 1000 nM	5.06	–
E13 [4], 3000 nM	6.07	–
E13 [11], 4.1 nM	–	0.384
E13 [11], 12.3 nM	–	0.325
E13 [11], 37 nM	–	0.263
E13 [11], 111.1 nM	–	0.0805
E13 [11], 333.3 nM	–	0.1
E13 [11], 1000 nM	–	0.0786
E13 [11], 3000 nM	–	0.0218
E21 [6], 4.1 nM	5.11	–
E21 [6], 12.3 nM	7.13	–
E21 [6], 37 nM	6.25	–
E21 [6], 111.1 nM	6.76	–
E21 [6], 333.3 nM	7.24	–
E21 [6], 1000 nM	6.47	–
E21 [6], 3000 nM	9.02	–
E21 [13], 4.1 nM	–	0.251
E21 [13], 12.3 nM	–	0.305
E21 [13], 37 nM	–	0.194
E21 [13], 111.1 nM	–	0.13
E21 [13], 333.3 nM	–	0.0649
E21 [13], 1000 nM	–	0.0703
E21 [13], 3000 nM	–	0.0202
E28 [2], 4.1 nM	4.14	–
E28 [2], 12.3 nM	4.17	–
E28 [2], 37 nM	4.19	–
E28 [2], 111.1 nM	5.37	–
E28 [2], 333.3 nM	4.96	–
E28 [2], 1000 nM	5.04	–
E28 [2], 3000 nM	4.01	–
E28 [9], 4.1 nM	–	0.322
E28 [9], 12.3 nM	–	0.276
E28 [9], 37 nM	–	0.244
E28 [9], 111.1 nM	–	0.14
E28 [9], 333.3 nM	–	0.347
E28 [9], 1000 nM	–	0.209
E28 [9], 3000 nM	–	0.0681
E31 [7], 4.1 nM	3.76	–
E31 [7], 12.3 nM	3.17	–
E31 [7], 37 nM	4.87	–
E31 [7], 111.1 nM	6.24	–
E31 [7], 333.3 nM	4.82	–
E31 [7], 1000 nM	7.62	–
E31 [7], 3000 nM	10.2	–
E31 [14], 4.1 nM	–	0.141
E31 [14], 12.3 nM	–	0.184
E31 [14], 37 nM	–	0.101
E31 [14], 111.1 nM	–	0.058
E31 [14], 333.3 nM	–	0.107
E31 [14], 1000 nM	–	0.0565
E31 [14], 3000 nM	–	0.0104
E34 [3], 4.1 nM	3.49	–
E34 [3], 12.3 nM	3.06	–
E34 [3], 37 nM	2.17	–
E34 [3], 111.1 nM	4.14	–
E34 [3], 333.3 nM	2.6	–
E34 [3], 1000 nM	3.14	–
E34 [3], 3000 nM	5.46	–
E34 [10], 4.1 nM	–	0.51
E34 [10], 12.3 nM	–	0.559
E34 [10], 37 nM	–	0.488
E34 [10], 111.1 nM	–	0.527
E34 [10], 333.3 nM	–	0.331
E34 [10], 1000 nM	–	0.488
E34 [10], 3000 nM	–	0.214
E57 [1], 4.1 nM	7.85	–
E57 [1], 12.3 nM	8.69	–
E57 [1], 37 nM	8.43	–
E57 [1], 111.1 nM	8.17	–
E57 [1], 333.3 nM	5.64	–
E57 [1], 1000 nM	5.25	–
E57 [1], 3000 nM	7.33	–
E57 [8], 4.1 nM	–	0.226
E57 [8], 12.3 nM	–	0.199
E57 [8], 37 nM	–	0.176
E57 [8], 111.1 nM	–	0.106
E57 [8], 333.3 nM	–	0.126
E57 [8], 1000 nM	–	0.122
E57 [8], 3000 nM	–	0.0208
FT3469 [5], 4.1 nM	2.41	–
FT3469 [5], 12.3 nM	2.29	–
FT3469 [5], 37 nM	3.24	–
FT3469 [5], 111.1 nM	6.3	–
FT3469 [5], 333.3 nM	5.37	–
FT3469 [5], 1000 nM	5.38	–
FT3469 [5], 3000 nM	7.66	–
FT3469 [12], 4.1 nM	–	0.631
FT3469 [12], 12.3 nM	–	0.549
FT3469 [12], 37 nM	–	0.534
FT3469 [12], 111.1 nM	–	0.31
FT3469 [12], 333.3 nM	–	0.381
FT3469 [12], 1000 nM	–	0.354
FT3469 [12], 3000 nM	–	0.144
